According to US10781184B2, “Substituted benzazinones as antibacterial compounds” (GlaxoSmithKline Intellectual Property Development Limited, priority 2015, dated 2020):
Converted amounts (≈) assume the structure as drawn.

What was measured:
K. pneumoniae 1161486 = assay: Minimum Inhibitory Concentration Assay (broth microdilution, CLSI); type: cell-based; settings: Klebsiella pneumoniae; strain 1161486, broth microdilution; read-out: K. pneumoniae 1161486 MIC
In short: (§1)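 CLSI broth microdilution for aerobic bacteria; compounds serially diluted in the recommended broth over a final range of 0.125–128 mcg/mL, final DMSO below 1%. MIC read as the lowest concentration inhibiting visible growth.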

P. aeruginosa PA01 = assay: as above; type: cell-based; settings: Pseudomonas aeruginosa; strain PA01, broth microdilution; read-out: P. aeruginosa PA01 MIC
In short: as §1

E. coli 7623 = assay: as above; type: cell-based; settings: Escherichia coli; strain 7623, broth microdilution; read-out: E. coli 7623 MIC
In short: as §1

Untagged E. coli LpxC = target: T1, Untagged E. coli LpxC (Escherichia coli, UniProt P0A725); assay: E. coli Enzyme Assay (LpxC deacetylase, RapidFire MS); type: biochemical; settings: read-out: E. coli plC50 (converted)
T1 construct: Untagged E. Coli LpxC 1-300 was expressed in E. Coli; made in house; host or cells: E. coli
T1 sequence (P0A725 1-300): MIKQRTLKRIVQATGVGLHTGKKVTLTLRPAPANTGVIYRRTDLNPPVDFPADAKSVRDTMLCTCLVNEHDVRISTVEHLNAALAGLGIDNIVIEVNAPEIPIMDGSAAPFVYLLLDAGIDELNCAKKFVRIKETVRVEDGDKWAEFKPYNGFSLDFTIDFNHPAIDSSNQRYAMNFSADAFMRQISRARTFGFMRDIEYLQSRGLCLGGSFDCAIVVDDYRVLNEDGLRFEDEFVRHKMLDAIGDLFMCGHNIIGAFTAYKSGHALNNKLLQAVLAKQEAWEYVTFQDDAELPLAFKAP
From the text: Untagged E. Coli LpxC 1-300 was expressed in E. Coli and purified with NiNTA Agarose, Superdex 200 and Mono Q columns. UDP-3-O—(R-3-hydroxymyristoyl)-N-Acetylglucosamine Substrate was obtained through a custom synthesis from Alberta Innovates Technology Futures. Method Untagged E. coli LpxC is a deacetylase, which can remove an acetyl-group from UDP-3-O—(R-3-hydroxymyristoyl)-N-Acetylglucosamine (m/z 832.1-385) to result in a product (m/z 790.3→385) that is 42 Daltons less than the original acetylated substrate. Direct detection of the deacetylated product and acetylated substrate was accomplished through an Agilent RapidFire v. 3.4/Sciex 4000 Q-Trap RF-MS instrument. […] Following a 30 minute preincubation, 20 μL of 2× substrate [2 μM final concentration; 39.984 mL buffer+16 μL of UDP-3-O—(R-3-hydroxymyristoyl)-N-Acetylglucosamine (at 10 mM Stock)] was added and incubated for 25 minutes. The reaction was quenched by the addition of 10 μL of 1N HCl. The plate was loaded onto the Agilent RapidFire v. 3.4/Sciex 4000 Q-Trap RF-MS instrument for analysis [C4 SPE cartridge, 2 mM ammonium acetate in 100 v/v water as the aqueous eluent and 5 mM ammonium acetate in 25% v/v/25% v/v/50% v/v acetonitrile/acetone/water as the organic eluent]. For dose response experiments % conversion were determined from the substrate and product extracted ion chromatogram (XIC) areas and normalized to the assay high and low controls. Normalized data were fit by ActivityBase XE using the equation y=a+(b−a)/(1+(10^x/10^c)^d), where a is the minimum % activity, b is the maximum % activity, c is the pIC50, and d is the Hill slope. ^1Langsdorf, Erik F. et al. Screening for Antibacterial Inhibitors of the UDP-3-O—(R-3-Hydroxymyristoyl)-N-Acetylglucosamine Deacetylase (LpxC) Using a High-Throughput Mass Spectroscopy Assay. See, J. Biomol. Screen. 2010, 15, 52-61. Minimum Inhibitory Concentration Assay

| SMILES | MIC (K. pneumoniae 1161486) | MIC (P. aeruginosa PA01) | MIC (E. coli 7623) | IC50 (Untagged E. coli LpxC) |
| --- | --- | --- | --- | --- |
| COC(C)(C)CNCc1ccc(-c2ccc3c(=O)n(CC[C@](C)(C(=O)NO)S(C)(=O)=O)ccc3c2)c(F)c1 [Example 68, (2R)-4-[6-(2-fluoro-4-{[(2-methoxy-2-methylpropyl)amino]methyl}phenyl)-1-oxo-1,2-dihydroisoquinolin-2-yl]-N-hydroxy-2-methanesulfonyl-2-methylbutanamide] | 0.5 µg/mL (≈ 0.913 µM) | 2 µg/mL (≈ 3.65 µM) | 0.125 µg/mL (≈ 0.228 µM) | 1 nM |
| CCOCCNCc1ccc(-c2ccc3c(=O)n(CC[C@](C)(C(=O)NO)S(C)(=O)=O)ccc3c2)c(F)c1 [Example 72, (2R)-4-[6-(4-{[(2-ethoxyethyl)amino]methyl}-2-fluorophenyl)-1-oxo-1,2-dihydroisoquinolin-2-yl]-N-hydroxy-2-methanesulfonyl-2-methylbutanamide] | 0.25 µg/mL (≈ 0.468 µM) | 1 µg/mL (≈ 1.87 µM) | 0.125 µg/mL (≈ 0.234 µM) | 1 nM |
| COc1ccc(-c2ccc3c(=O)n(CC[C@](C)(C(=O)NO)S(C)(=O)=O)cnc3c2)cc1 [Example 3, (R)—N-hydroxy-4-(7-(4-methoxyphenyl)-4-oxoquinazolin-3(4H)-yl)-2-methyl-2-(methylsulfonyl)butanamide] | 0.5 µg/mL (≈ 1.12 µM) | 2 µg/mL (≈ 4.49 µM) | 0.06 µg/mL (≈ 0.135 µM) | 1 nM |
| CN(C)Cc1ccc(-c2ccc3c(=O)n(CC[C@](C)(C(=O)NO)S(C)(=O)=O)ccc3c2)c(F)c1F [Example 69, (2R)-4-(6-{4-[(dimethylamino)methyl]-2,3-difluorophenyl}-1-oxo-1,2-dihydroisoquinolin-2-yl)-N-hydroxy-2-methanesulfonyl-2-methylbutanamide] | 1 µg/mL (≈ 1.97 µM) | 1 µg/mL (≈ 1.97 µM) | 0.125 µg/mL (≈ 0.246 µM) | 1 nM |
| C[C@@](CCn1ccc2cc(-c3ccc(CN4CCOCC4)cc3)ccc2c1=O)(C(=O)NO)S(C)(=O)=O [Example 64, (2R)—N-hydroxy-2-methanesulfonyl-2-methyl-4-(6-{4-[(morpholin-4-yl)methyl]phenyl}-1-oxo-1,2-dihydroisoquinolin-2-yl)butanamide] | 0.25 µg/mL (≈ 0.487 µM) | 0.5 µg/mL (≈ 0.973 µM) | < 0.03 µg/mL | 1 nM |
| C[C@@](CCn1cnc2cc(-c3ccc(CCN4CCOCC4)cc3)ccc2c1=O)(C(=O)NO)S(C)(=O)=O [Example 42, (2R)—N-hydroxy-2-methanesulfonyl-2-methyl-4-(7-{4-[2-(morpholin-4-yl)ethyl]phenyl}-4-oxo-3,4-dihydroquinazolin-3-yl)butanamide] | 0.5 µg/mL (≈ 0.946 µM) | 2 µg/mL (≈ 3.78 µM) | 0.25 µg/mL (≈ 0.473 µM) | 1 nM |
| COc1ccc(-c2ccc3c(=O)n(CC[C@](C)(C(=O)NO)S(C)(=O)=O)ccc3c2)cn1.Cl [Example 60, (2R)—N-hydroxy-2-methanesulfonyl-4-[6-(6-methoxypyridin-3-yl)-1-oxo-1,2-dihydroisoquinolin-2-yl]-2-methylbutanamide] | 0.5 µg/mL | 0.5 µg/mL | < 0.03 µg/mL |  |
| CN(CCOc1ccc(-c2ccc3c(=O)n(CC[C@](C)(C(=O)NO)S(C)(=O)=O)ccc3c2)cn1)C1CC1.O=C(O)C(F)(F)F [Example 82, (2R)-4-[6-(6-{2-[cyclopropyl(methyl)amino]ethoxy}pyridin-3-yl)-1-oxo-1,2-dihydroisoquinolin-2-yl]-N-hydroxy-2-methanesulfonyl-2-methylbutanamide] | 0.25 µg/mL | 4 µg/mL | 0.25 µg/mL |  |
| COCCNCc1ccc(-c2ccc3c(=O)n(CC[C@](C)(C(=O)NO)S(C)(=O)=O)ccc3c2)c(F)c1F [Example 71, (R)-4-(6-(2,3-difluoro-4-(((2-methoxyethyl)amino)methyl)phenyl)-1-oxoisoquinolin-2(1H)-yl)-N-hydroxy-2-methyl-2-(methylsulfonyl)butanamide] | 0.5 µg/mL (≈ 0.93 µM) | 0.5 µg/mL (≈ 0.93 µM) | 0.063 µg/mL (≈ 0.117 µM) |  |
| C[C@@](CCn1ccc2cc(-c3ccc(CCN4CCOCC4)cc3)ccc2c1=O)(C(=O)NO)S(C)(=O)=O [Example 80, (2R)—N-hydroxy-2-methanesulfonyl-2-methyl-4-(6-{4-[2-(morpholin-4-yl)ethyl]phenyl}-1-oxo-1,2-dihdroisoquinolin-2-yl)butanamide] | 0.25 µg/mL (≈ 0.474 µM) | 1 µg/mL (≈ 1.9 µM) | 0.063 µg/mL (≈ 0.119 µM) |  |

Second part, led by results:

| MIC (K. pneumoniae 1161486) | MIC (P. aeruginosa PA01) | MIC (E. coli 7623) | SMILES | IC50 (Untagged E. coli LpxC) |
| --- | --- | --- | --- | --- |
| 0.125 µg/mL (≈ 0.273 µM) | 0.5 µg/mL (≈ 1.09 µM) | 0.063 µg/mL (≈ 0.137 µM) | C[C@@](CCn1ccc2cc(-c3ccc(CCO)cc3)ccc2c1=O)(C(=O)NO)S(C)(=O)=O [Example 93, (2R)—N-hydroxy-4-{6-[4-(2-hydroxyethyl)phenyl]-1-oxo-1,2-dihydroisoquinolin-2-yl}-2-methanesulfonyl-2-methylbutanamide] |  |
| 0.125 µg/mL (≈ 0.262 µM) | 0.5 µg/mL (≈ 1.05 µM) | < 0.03 µg/mL | C[C@@](CCn1cnc2cc(-c3ccc(CCO)cc3)c(F)cc2c1=O)(C(=O)NO)S(C)(=O)=O [Example 28, (2R)-4-(6-fluoro-7-[4-(2-hydroxyethyl)phenyl]-4-oxo-3,4-dihydroquinazolin-3-yl)-N-hydroxy-2-methanesulfonyl-2-methylbutanamide] |  |
| 0.125 µg/mL (≈ 0.254 µM) | 1 µg/mL (≈ 2.03 µM) | < 0.03 µg/mL | COCCc1ccc(-c2ccc3c(=O)n(CC[C@](C)(C(=O)NO)S(C)(=O)=O)cnc3c2)c(F)c1 [Example 48, (2R)-4-{7-[2-fluoro-4-(2-methoxyethyl)phenyl]-4-oxo-3,4-dihydroquinazolin-3-yl}-N-hydroxy-2-methanesulfonyl-2-methylbutanamide] |  |
| 1 µg/mL (≈ 2.02 µM) | 2 µg/mL (≈ 4.04 µM) | < 0.03 µg/mL | C[C@@](CCn1cnc2cc(-c3ccc(CCO)cc3F)c(F)cc2c1=O)(C(=O)NO)S(C)(=O)=O [Example 27, (2R)-4-{6-fluoro-7-[2-fluoro-4-(2-hydroxyethyl)phenyl]-4-oxo-3,4-dihydroquinazolin-3-yl}-N-hydroxy-2-methanesulfonyl-2-methylbutanamide] |  |
| 0.5 µg/mL (≈ 1.02 µM) | 2 µg/mL (≈ 4.06 µM) | 0.125 µg/mL (≈ 0.254 µM) | CONCc1ccc(-c2ccc3c(=O)n(CC[C@](C)(C(=O)NO)S(C)(=O)=O)cnc3c2)c(F)c1 [Example 50, (2R)-4-(7-{2-fluoro-4-[(methoxyamino)methyl]phenyl}-4-oxo-3,4-dihydroquinazolin-3-yl)-N-hydroxy-2-methanesulfonyl-2-methylbutanamide] |  |
| 1 µg/mL (≈ 1.87 µM) | 1 µg/mL (≈ 1.87 µM) | 0.125 µg/mL (≈ 0.234 µM) | COCCN(C)Cc1ccc(-c2ccc3c(=O)n(CC[C@](C)(C(=O)NO)S(C)(=O)=O)cnc3c2)c(F)c1 [Example 36, (2R)-4-[7-(2-fluoro-4-{[(2-methoxyethyl)(methyl)amino]methyl}phenyl)-4-oxo-3,4-dihydroquinazolin-3-yl]-N-hydroxy-2-methanesulfonyl-2-methylbutanamide] |  |
| 0.125 µg/mL (≈ 0.273 µM) | 0.5 µg/mL (≈ 1.09 µM) | 0.063 µg/mL (≈ 0.138 µM) | C[C@@](CCn1ccc2cc(-c3ccc(C#N)cc3F)ccc2c1=O)(C(=O)NO)S(C)(=O)=O [Example 59, (2R)-4-[6-(4-cyano-2-fluorophenyl)-1-oxo-1,2-dihydroisoquinolin-2-yl]-N-hydroxy-2-methanesulfonyl-2-methylbutanamide] |  |
